# pIC50: −log10 of the molar value. Numbered stars: 1 amine (or outer) side, 2 acyl side, 3 side chain; on linkers, the order of the positions; unused ones are H or OH. Bridge positions count the residues as written; N and C are the ends. Square brackets hold non-standard residues; d marks the D form. Peptide text beside a SMILES is read from it. * marks the point of attachment. dLeu(3R-OH) = CC(C)[C@@H](O[*:3])[C@@H](N[*:1])C(=O)[*:2]; Gln(3S,4R-Me2) = C[C@H]([C@H](N)C(=O)O)[C@@H](C)C(N)=O; dTyr(βR-OMe) = CO[C@H](c1ccc(O)cc1)[C@@H](N)C(=O)O; Pip(4S-Cl) = O=C(O)[C@@H]1C[C@@H](Cl)CCN1; X1 = CCC(C)/C=C(C)/C=C\C(O)C(C)(O)C(=O)*; Abu(3R-NH2) = C[C@@H](N)[C@H](N)C(=O)O; NMeT = CN[C@H](C(=O)O)[C@@H](C)O
# Test system: Human immunodeficiency virus 1
# Assay: Inhibition of HIV1 isolate YU2 infected in human TZM-bl cells expressing CD4 and CCR5 assessed as assessed inhibition of viral entry after 24 hrs by luciferase reporter assay
# Type: functional, organism-based
# Conditions: Human immunodeficiency virus 1, isolate YU2, TZM-bl
smiles,measurement,value
"CCC(C)/C=C(C)/C=C\C(O)C(C)(O)C(=O)NCC(=O)N[C@H](C(=O)N[C@H](C(=O)N[C@H](C(=O)N[C@H]1C(=O)N[C@H](COC)C(=O)NCC(=O)N[C@@H](C)C(=O)N(C)[C@@H]([C@@H](C)O)C(=O)N[C@H]([C@H](OC)c2ccc(O)cc2)C(=O)N2CC[C@H](Cl)C[C@H]2C(=O)O[C@@H]1C(C)C)[C@@H](C)[C@@H](C)C(N)=O)[C@@H](C)N)[C@@H](C)O (stereo partly drawn) [MIRABAMIDE C] (X1-GT[Abu(3R-NH2)][Gln(3S,4R-Me2)][dLeu(3R-OH)][dS](Me)GA[NMeT][dTyr(βR-OMe)][Pip(4S-Cl)]; ester 5-C)",pIC50,6.91

# — ChEMBL document CHEMBL1687884, “Mirabamides E-H, HIV-inhibitory depsipeptides from the sponge Stelletta clavosa” (J Nat Prod, 2011)
